US20150150787A1 (Pearl Therapeutics, Inc., priority 2013, published 2015)

Columns and labels:
[1] = Aerodynamic particle size distribution by Next Generation Impactor, MF/GP/FF triple cosuspension MDIs (Example 1); assay type: physicochemical; settings: for FPM values when MF strength was varied: FF 4.8 μg and GPBr 18 μg/actuation, MF 100-300 μg/actuation
Method: The FF, GPBr, and MF materials were provided as a separate species of active agent particles, with each of the active agents provided as micronized, crystalline material. The co-suspension compositions were provided in pressurized metered dose inhalers (“MDI” or “MDIs”), with each formulation prepared to provide a delivered dose of 4.8 μg/actuation and 18 μg/actuation, respectively, of FF and GPBr. However, the amount of MF included in the three different compositions was varied, with compositions prepared to provide a delivered dose of MF selected from one of 100 μg/actuation, 200 μg/actuation, and 300 μg/actuation.
The suspending particles used in these co-suspensions were perforated microstructures prepared as described herein using a phospholipid material (DSPC). Drug crystals of GPBr (Boehringer Ingelheim, Petersberg, Va.) were micronized by air jet milling after receipt (median size, X50, ˜1.6 μm), but the FF (Inke, S.A., Barcelona Spain; X50˜1.4 μm) and MF (Hovione, Loures Portugal; X50˜1.6 μm) drug crystals were used as received. The Co-suspension formulations were prepared in HFA 134a propellant (Mexichem, S.A., Tlanepantla Mexico) and filled into 14 mL fluorinated ethylene polymer coated aluminum canisters (Presspart, Blackburn, UK), packaged with 50 μl valves, and delivered using an actuator with orifice size 0.3 mm (Bespak, King's Lynn, UK). Aerodynamic particle size distributions (aPSD) were obtained using the Next Generation Impactor (NGI) with the flow rate set to 30±1 LPM (n=3). Drug content was measured using ion-exchange HPLC with UV detection for FF and GP or reversed-phase HPLC with UV detection for MF.

[2] = Aerosol performance by Next Generation Impactor, BD/GP/FF cosuspension MDIs (Example 2); assay type: physicochemical; settings: NGI 30 LPM, versus mono/dual cosuspensions or other strengths
Method: The aerosol performance of each of the triple cosuspension compositions was evaluated and compared to the aerosol performance provided by the GFF, BFF, and BD Mono cosuspensions. Aerosol performance and aerodynamic particle size distributions were obtained using the Next Generation Impactor (NGI) with the flow rate set to 30±1 LPM (n=3).

SMILES	FPM values when MF strength was varied [1]	Coformulation effect (aerosol performance) when formulated in the triple cosuspensions [2]	MF FPM dose proportionality, slope ([1]; FPM = drug mass stages 3 through MOC, MF 100, 200, 300 μg/actuation, NGI 30 LPM, n=3)
COc1ccc(C[C@@H](C)NC[C@H](O)c2ccc(O)c(NC=O)c2)cc1 (racemic) [FF, (±)-2-hydroxy-5-[(1RS)-1-hydroxy-2-[[(1RS)-2-(4-methoxyphenyl)-1-methylethyl]-amino]ethyl] formanilide]	remained virtually unchanged	no coformulation effect was observed	
C[N+]1(C)CCC(OC(=O)C(O)(c2ccccc2)C2CCCC2)C1 (stereo not shown) [GP, (3-[(cyclopentylhydroxyphenylacetyl)oxy]-1,1-dimethyl-, bromide)]	remained virtually unchanged		
C[C@@H]1C[C@H]2[C@@H]3CCC4=CC(=O)C=C[C@]4(C)[C@@]3(Cl)[C@@H](O)C[C@]2(C)[C@@]1(OC(=O)c1ccco1)C(=O)CCl [MF, mometasone furoate]			0.48
